For assay [1] the following is noted: cited from earlier work; for inhibiting femoral lesions: guinea pig model of osteoarthritis; for activity in the guinea pig model of osteoarthritis (in words): in vivo.
The target of assay [2] is MMP-3 (Homo sapiens, UniProt P08254). Particulars: cited from earlier work.
Assay [3] deals with MMP-9 (Homo sapiens, UniProt P14780). Particulars: cited from earlier work.
In assay [4] the test system is MMP-2. Particulars: cited from earlier work.
In assay [5] the target is T1, MMP-1 (Homo sapiens, UniProt P03956).
T1 sequence (P03956 100-469): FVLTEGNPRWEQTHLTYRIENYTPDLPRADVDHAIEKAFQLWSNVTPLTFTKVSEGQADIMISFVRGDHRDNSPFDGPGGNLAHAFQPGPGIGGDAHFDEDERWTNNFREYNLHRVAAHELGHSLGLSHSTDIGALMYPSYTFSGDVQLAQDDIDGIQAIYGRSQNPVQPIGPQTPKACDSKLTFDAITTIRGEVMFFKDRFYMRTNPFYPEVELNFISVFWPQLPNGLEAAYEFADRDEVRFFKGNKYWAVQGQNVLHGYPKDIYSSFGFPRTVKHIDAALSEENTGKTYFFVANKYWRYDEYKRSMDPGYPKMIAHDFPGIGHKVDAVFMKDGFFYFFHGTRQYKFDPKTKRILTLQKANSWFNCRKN
Particulars: cited from earlier work; for IC50: IA = inactive.

Assay [6] concerns the target MMP-8 (Homo sapiens, UniProt P22894). Particulars: cited from earlier work.
For assay [7], the system named is MMPs. Particulars: cited from earlier work.
For assay [8] the following is noted: in vivo; cited from earlier work.
For assay [9] the following is noted: in vivo; cited from earlier work. The source holds these as a separate data set.
For assay [10] the following is noted: from MBP-sensitized splenocytes; cited from earlier work.
For assay [11], the system named is stromelysin. Particulars: dosed orally at 30 mg/kg in rabbits injected with stromelysin; cited from earlier work.
Assay [12] relates to MMP-2.
Assay [13] deals with MMP-13 (Homo sapiens, UniProt P45452). Particulars: cited from earlier work.

Here are results for 26 molecules from patent EP1366765A1, “Use of matrix metalloproteinase inhibitors for treating neurological disorders and promoting wound healing” (priority 1996, dated 1998).

Where a name gives a salt, the structure may show the parent alone. Where a SMILES comes first, the peptide text is derived from it. The star is where a group is joined. Hydrocinnamoyl = O=C(CCc1ccccc1)*; Tfa = O=C(C(F)(F)F)*

MMP-3, sequence (P08254 100-477, species assumed): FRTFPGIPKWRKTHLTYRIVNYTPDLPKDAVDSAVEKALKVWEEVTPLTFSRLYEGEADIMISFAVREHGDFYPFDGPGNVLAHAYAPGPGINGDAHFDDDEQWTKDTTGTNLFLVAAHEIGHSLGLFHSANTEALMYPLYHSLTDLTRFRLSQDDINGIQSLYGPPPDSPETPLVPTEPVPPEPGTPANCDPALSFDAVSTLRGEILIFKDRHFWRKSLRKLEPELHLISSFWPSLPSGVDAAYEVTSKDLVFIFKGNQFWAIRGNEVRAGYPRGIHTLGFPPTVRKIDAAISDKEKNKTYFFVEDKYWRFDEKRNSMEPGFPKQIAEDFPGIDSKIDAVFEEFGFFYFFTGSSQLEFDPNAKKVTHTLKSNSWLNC
MMP-8, sequence (P22894 101-467, species assumed): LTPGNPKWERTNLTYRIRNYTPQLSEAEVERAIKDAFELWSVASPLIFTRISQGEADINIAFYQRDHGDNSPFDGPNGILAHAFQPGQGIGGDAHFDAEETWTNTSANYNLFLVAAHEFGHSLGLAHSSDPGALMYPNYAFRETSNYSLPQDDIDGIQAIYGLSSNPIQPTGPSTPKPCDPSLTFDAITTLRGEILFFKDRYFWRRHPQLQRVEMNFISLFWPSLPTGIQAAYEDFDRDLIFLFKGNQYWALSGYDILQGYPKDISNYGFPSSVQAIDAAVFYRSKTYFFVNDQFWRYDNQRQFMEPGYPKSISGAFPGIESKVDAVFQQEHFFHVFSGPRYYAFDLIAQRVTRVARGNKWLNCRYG
MMP-9, sequence (P14780 94-707, species assumed): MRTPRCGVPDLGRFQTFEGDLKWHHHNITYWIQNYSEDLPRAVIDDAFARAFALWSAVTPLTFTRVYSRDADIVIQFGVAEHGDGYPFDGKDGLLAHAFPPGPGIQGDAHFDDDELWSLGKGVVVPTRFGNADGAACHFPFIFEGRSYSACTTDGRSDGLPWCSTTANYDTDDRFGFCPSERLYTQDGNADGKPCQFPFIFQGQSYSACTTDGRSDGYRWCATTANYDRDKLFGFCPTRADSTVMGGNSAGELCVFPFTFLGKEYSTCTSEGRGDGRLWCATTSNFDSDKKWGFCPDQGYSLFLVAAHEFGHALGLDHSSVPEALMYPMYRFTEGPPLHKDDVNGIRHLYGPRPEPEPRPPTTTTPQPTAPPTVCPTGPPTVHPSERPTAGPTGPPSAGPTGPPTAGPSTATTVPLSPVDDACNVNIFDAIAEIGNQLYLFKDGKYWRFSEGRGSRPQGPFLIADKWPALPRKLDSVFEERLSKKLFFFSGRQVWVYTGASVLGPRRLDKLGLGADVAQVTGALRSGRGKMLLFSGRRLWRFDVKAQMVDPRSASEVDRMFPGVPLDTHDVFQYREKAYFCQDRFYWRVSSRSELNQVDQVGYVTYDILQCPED

For `O=C(CC(CCc1ccccc1)C(=O)O)c1ccc(-c2ccc(OCc3ccccc3)cc2)cc1` (stereo not drawn) [Compound 43], the inhibiting femoral lesions in assay [1] is reported as 37.8%. For the same molecule, the “activity in the guinea pig model of osteoarthritis (in words)” value (“activity in the guinea pig model” below) in [1] is given as “active”. Also, the IC50 in assay [2] was 17 nM; in [3] it was 3200 nM; in assay [4], 14 nM.
Turning to `COC(=O)c1cccc2c1C(=O)c1c(C(=O)OC)cc(C(=O)O)cc1C2=O` [Compound 48], the “inhibition of MMP-1 (in words)” value in assay [5] is recorded as “MMP-1 inhibitors”.
On to `CNC(=O)[C@H](Cc1ccccc1)NC(=O)[C@H](CCCOCc1ccccc1)CC(=O)NO` [Compound 8], for which the IC50 in assay [5] is 2270 nM.
Regarding `NC(=O)C(Cc1ccccc1)NC(=O)C(CS)NC(=O)C(F)(F)F` (stereo not drawn) [Compound 33] (Tfa-Cys-Phe-NH2; configuration not given here), the IC50 in [5] was 40 nM.
Regarding `CCCNC(=O)CCC[C@H](CC(=O)NO)C(=O)N[C@@H](Cc1ccccc1)C(=O)NC` [Compound 6], the figures for the IC50 in [5] and in [6] were 5100 nM and 2 nM, respectively.
Turning to `CC(C)CC(NC(=O)C(CCc1ccccc1)NC(CCCCN1C(=O)c2ccccc2C1=O)C(=O)O)C(=O)Nc1ccccc1` (stereo not drawn) [Compound 27], the IC50 was 720 nM in assay [5], 8 nM in assay [2] and 86 nM in assay [4].
`CNC(=O)[C@H](Cc1ccccc1)NC(=O)[C@H](CC(C)C)N[C@@H](CCN1C(=O)c2cc3ccccc3cc2C1=O)C(=O)O` [Compound 28]: the IC50 is 20 nM in [5], 91 nM in assay [2] and 5 nM in [3].
For `CC(=O)NC(CS)C(=O)NC(Cc1ccccc1)C(N)=O` (stereo not drawn) [Compound 34] (Ac-Cys-Phe-NH2; configuration not given here), in [5], the half-maximal inhibitory concentration (IC50) is over 100000 nM and the “inhibition of MMP-1 (in words)” value is recorded as “did not inhibit”.
As to `CCCc1ccc(CCC(CC(CCCCN2C(=O)c3ccccc3C2=O)C(=O)O)C(=O)NC(CC(C)C)C(=O)Nc2ccccc2)cc1` (stereo not drawn) [Compound 32], the IC50 in assay [5] is over 10000 nM; in assay [2] it was 0.036 nM; in assay [4], 5.7 nM.
With `CO[C@H]1[C@H](O[C@@H]2c3c(cc4c(c3O)C(=O)c3c(O)cccc3C4=O)C(=O)[C@@](C)(O)[C@H]2OC)O[C@@H](C)[C@H](O)[C@H]1O` [Compound 46, aranciamycin], the “inhibition of MMPs (in words)” value in assay [7] is “weak inhibitors”.
For `O=C(CC(CCN1C(=O)c2ccccc2C1=O)C(=O)O)c1ccc(-c2ccc(OCc3ccccc3)cc2)cc1` (stereo not drawn) [Compound 44], the “antimetastatic effect, tail vein metastasis model” value in assay [8] is listed as “antimetastatic”. Besides, in [1], the inhibiting femoral lesions is 53%. In addition, the “activity in the guinea pig model” value in assay [1] is reported as “active”. Also, the IC50 was 5.7 nM in assay [2], 1.5 nM in assay [3] and 0.91 nM in assay [4]. Also, the “antimetastatic effect, spontaneous metastasis model” value in [9] is given as “antimetastatic”.
Take `CNC(=O)[C@@H](NC(=O)[C@@H](CC(=O)NO)CC(C)C)C(C)(C)C` [RO 31-9790]: in assay [10], the “protection in adoptively transferred EAE” value is on record as “protect”.
On to `CC(C)C[C@H](N[C@@H](CCN1C(=O)c2cc3ccccc3cc2C1=O)C(=O)O)C(=O)NCc1ccc(C(=O)O)cc1` [Compound 31], for which the IC50 in assay [5] was 56 nM; in assay [3], 74 nM; in [4] it was 178 nM.
For `CNC(=O)[C@H](Cc1ccccc1)NC(=O)[C@H](CCCC(=O)NCCc1ccccc1)CC(=O)NO` [Compound 7], the IC50 was 1300 nM in [5] and 32 nM in assay [6].
As to `Cc1ccc(CCC[C@H](CC(=O)O)C(=O)N[C@@H](CC2CCCCC2)C(=O)NCCc2ccccc2)cc1` [Compound 19], the IC50 in assay [5] was 22000 nM; in assay [2] it was 470 nM; in assay [4], 1 nM.
For the molecule `CNC(=O)[C@H](Cc1ccccc1)NC(=O)[C@H](CCCCO)CC(=O)NO` [Compound 5], the values for the IC50 in [5] and in assay [6] were 64 nM and 7 nM, respectively.
Consider `NC(=O)C(Cc1ccccc1)NC(=O)C(CS)NC(=O)CCc1ccccc1` (stereo not drawn) [Compound 35] (Hydrocinnamoyl-Cys-Phe-NH2; configuration not given here), for which the results for the IC50 in assay [5] and in assay [6] were 3500 nM and 38 nM, respectively.
In the case of `CC(=O)NC1C(O)CC(Cc2cc3ccc(=O)oc3cc2OC(=O)N(C)C)C(O)C1O` (stereo not drawn) [Compound 49], the “inhibition of MMP-1 (in words)” value in [5] was “weak inhibitors”.
As for `CNC(=O)[C@H](Cc1ccccc1)NC(=O)[C@H](CC(C)C)N[C@@H](CCN1C(=O)c2cc3ccccc3c(OC)c2C1=O)C(=O)O` [Compound 29], the results for the IC50 in [5], in assay [2] and in assay [3] were 54 nM, 1400 nM and 7 nM, respectively.
For `COc1ccc(S(=O)(=O)N(Cc2cccnc2)[C@@H](C(=O)NO)C(C)C)cc1` [Compound 40], in assay [1], the “activity in the guinea pig model” value was “effective”. Moreover, the proteoglycan break down result in assay [11] is given as “blocks proteoglycan break down”.
In the case of `CCCCCCCCC(NC(C)C(=O)O)C(=O)NC(CC(C)C)C(=O)Nc1ccccc1` (stereo not drawn) [Compound 24], the IC50 was over 10000 nM in [5], 570 nM in assay [2] and 340 nM in assay [4].
With `CCCCCCCCCCCC[C@H](CC(=O)O)C(=O)N[C@@H](Cc1ccccc1)C(=O)NC` [Compound 11], in assay [5] (@ 100 µM), the “MMP-1 % @ 100 µM” value is recorded as 30% @ 100 µM.
Regarding `Cc1ccc(CCCC(CP(=O)(O)O)C(=O)NC(CC2CCCCC2)C(=O)NCCc2ccccc2)cc1` (stereo not drawn) [Compound 37], the IC50 in [5] is 17000 nM; in assay [2] it was 277 nM; in assay [4] it was 2.5 nM.
Take `CC(C)CC(NC(CCN1C(=O)c2cc3ccccc3cc2C1=O)C(=O)O)C(=O)NCCc1ccccc1` (stereo not drawn) [Compound 30]: the IC50 is 160 nM in assay [5], 35 nM in [3] and over 10000 nM in assay [4].
On to `O=C(C[C@@H](CCCc1ccccc1)C(=O)N[C@@H](CC1CCCCC1)C(=O)NCCc1ccccc1)NO` [Compound 17], for which the IC50 in assay [5] is 203 nM; in assay [2] it was 8.3 nM. For the same molecule, the “selectivity for MMP-2 over MMP-1” value in assay [12] was 10,000 fold. Besides, in [12], the “selectivity for MMP-2 over MMP-3” value was 100 fold.
For the molecule `O=C(C[C@@H](CCCc1ccc(Cl)cc1)C(=O)N[C@@H](CC1CCCCC1)C(=O)NCCNS(=O)(=O)N1CCOCC1)NO` [Compound 18], the IC50 in [5] is 385 nM; in assay [3], 0.016 nM; in assay [4], under 0.01 nM. Moreover, the “inhibition of MMP-13 (in words)” value in [13] was “potently inhibits”.

The term IC50 denotes the concentration that gives 50% inhibition.
